Patent publication US12570704B2, “Functionally modified maytansinoids and compositions and methods of use thereof” (University of Georgia Research Foundation, Inc., priority 2019, dated 2026)
Non-standard residues stand in square brackets, D forms with d. Residues, ends and D or L forms follow the SMILES beside them. ξ: configuration not given here. ξGly(4-Pip(1-amidino)) = N=C(N)N1CCC(C(N)C(=O)O)CC1; ξGly(piperidin-4-yl) = NC(C(=O)O)C1CCNCC1; ξTle = CC(C)(C)C(N)C(=O)O; ξP = O=C(O)C1CCCN1; ξC = NC(CS)C(=O)O

Experiments:
H1299 cells [1] = assay: Clonogenic assay with X-ray irradiation, linear-quadratic model; format: cell-based, human; details: 20 nM, 12 h, X-rays 0-10 Gy
Experimental: Around 3×10^5 of H1299 cells were plated in a series of 25 mm petri dishes in 5 mL of complete RMPI-1640 medium, and the cells were incubated for 24 h at 37° C. Once the cells were completely adhered to the bottom of the plate, the media was replaced with fresh RPMI-1640 containing DM1 or DM1-NO with a final concentration of 20 nM. After another 12 h of incubation, the cell cultures were irradiated by X-rays (320 kV) of different doses Immediately following the X-ray irradiation, the cell monolayers were trypsinized using 0.05% Trypsin/EDTA (Gibco, Life Technologies, USA). Single cells were collected and plated onto a 25 mm petri dish in 5 mL complete media (FIG. 1K). Each dish was then incubated for 21 days to allow colonies to form. After that, the media was removed and 0.5% crystal violet in 70% methanol was used to fixed and stain the existing colonies. The plates were sufficiently and carefully rinsed, and were dried at room temperature. Once dried, the colonies were counted manually under a microscope. When observed under the microscope, colonies of […] were said to be surviving colonies. The survival rate of these colonies was normalized to the plating efficiency of the untreated control cells. The mean and standard deviation of surviving colonies in each treatment group was calculated.
The potential of DM1-NO as a radiosensitizer was assessed by clonogenic assays. Briefly, DM1 or DM1-NO was incubated with H1299 cells, the cells were irradiated with X-rays (0-10 Gy), and the resulting cells were seeded onto a petri dish (FIG. 1K). Colonies consisting more than 50 cells after 3 weeks were counted, and the data fit to a linear-quadratic model (Table 3).

H1299 cells [2] = assay: MTT cell viability assay, 72 h, in the presence of RT; format: cell-based, human; details: with RT
Experimental: FIGS. 7A-7E are plots showing the results of a cell cycle analysis, based on PI staining and assessed by flow cytometry. H1299 cells were incubated with PBS (7A), DM1 (7B), DM1-NO (7C), DM1-NPs (7D), or DM1-NO-NPs (20 nM, DM1 concentration) (7E) before analysis. […] FIG. 7G is a bar graphs showing Percentage of tubulin inhibition. Tubulin polymer was collected by centrifugation (35000×g for 1 h at 30° C.) and the amount of tubulin protein sediment was quantified by measuring protein concentration. ***, P<0.001. FIG. 7H is a line graph showing cell viability, tested with H1299 cells using 72-h MTT in the presence of RT. DM1, DM1-NO, and DM1-NO-NPs were studied.
The viability of the H1299 cells after different treatments was measured by (4,5-dimethythiazon-2-yl)-2,5-diphenyl tetrazolium bromide (MTT) assay using an Infinite M200 microplate reader (BioTek's Synergy™ Mx, USA). Around 3×10^3 cells per well were seeded into a 96-well plate and cultured overnight until the cells fully adhered to the bottom of the plate. The cells were treated with different treatment groups, including free drugs (DM1 and DM1-NO), and drug loaded nanoparticles (DM1-NPs and DM1-NO-NPs) for 72 h. […] The plate was gently shake for 5 min (instrument setup) to dissolve the formazan crystals, and the absorbance at 570 nm was recorded by a microplate reader. […]

H1299 cells [3] = assay: MTT cell viability assay, 72 h, without RT; format: cell-based, human
Experimental: The viability of the H1299 cells after different treatments was measured by (4,5-dimethythiazon-2-yl)-2,5-diphenyl tetrazolium bromide (MTT) assay using an Infinite M200 microplate reader (BioTek's Synergy™ Mx, USA). Around 3×10^3 cells per well were seeded into a 96-well plate and cultured overnight until the cells fully adhered to the bottom of the plate. The cells were treated with different treatment groups, including free drugs (DM1 and DM1-NO), and drug loaded nanoparticles (DM1-NPs and DM1-NO-NPs) for 72 h. […] After that MTT reagent (in 20 μL PBS, 5 mg/mL) was added to each well. The cells were further incubated for 4 h at 37° C. The medium in each well was then removed and replaced by 100 μL DMSO. The plate was gently shake for 5 min (instrument setup) to dissolve the formazan crystals, and the absorbance at 570 nm was recorded by a microplate reader. Each experiment condition was run three times and the data were shown as the mean value plus a standard deviation (±SD).

H1299 cells [4] = assay: Cell cycle arrest, PI staining and flow cytometry; format: cell-based, human; details: 20 nM, 24 h; PBS control 17.5%
Experimental: H1299 cells were seeded onto 6-well plates at a density of 2×10^5 cells per well and cultured overnight. The cells were then incubated with 20 nM of free drugs (DM1 and DM1-NO) or drug loaded nanoparticles (DM1-NPs and DM1-NO-NPs) for 24 h, and were then harvested and washed with ice-cold phosphate-buffered saline (PBS) and fixed with cold 70% (vol/vol) ethanol overnight at 4° C. The resulting cells were resuspended in PBS (1×) buffer containing a final concentration of 20 μg/mL RNase A and 20 μg/mL propidium iodide (eBioscience, Invitrogen, USA) for 15 min. The cell cycle profiles were determined using flow cytometry (HyperCyAn, Beckman USA) and analyzed using CellQuest software.

[5] = In vivo toxicity study (hematology, blood biochemistry, liver tissue); set-up: species or system balb/c mice; details: 260.8 nmol/kg i.v., Day 10
Experimental: Six-week old female albino BALB/c mice were purchased from Charles River Laboratories, USA. The animals were divided into control and experimental groups (n=3) and marked to permit individual identification. A similar dose (260.8 nmol/kg) of DM1-NO-NPs as used in therapeutic study was administered intravenously and the mice were examined for 10 days to observations for abnormal sign of toxicity such as change in behavioral, dizziness, respiratory distress or mortality were conducted until the end of the study. To further evaluate the hepatic function, alanine aminotransferase (ALT) and aspartate aminotransferase (AST) activities were measured and blood chemistry analysis was performed by using 20 μL blood serum sample form • each treated animal to assess the following: white blood cells (WBC), red blood cells (RBC), and platelets (PLT), plateletcrit, (PCT, mean platelet volume or platelet distribution width) and also corresponding sets of electrolytes (sodium, potassium, chloride, bicarbonate, sugar (glucose) calcium, inorganic phosphate, and magnesium, lipids (cholesterol), albumin, and total protein levels were also analyzed. Histological Analysis: […]

[6] = compared to wildtype NTS; cited from earlier work
NTSR1 = NTSR1 (Homo sapiens, UniProt P30989); details: compared to wildtype NTS; cited from earlier work
Chain of NTSR1 (P30989 whole entry): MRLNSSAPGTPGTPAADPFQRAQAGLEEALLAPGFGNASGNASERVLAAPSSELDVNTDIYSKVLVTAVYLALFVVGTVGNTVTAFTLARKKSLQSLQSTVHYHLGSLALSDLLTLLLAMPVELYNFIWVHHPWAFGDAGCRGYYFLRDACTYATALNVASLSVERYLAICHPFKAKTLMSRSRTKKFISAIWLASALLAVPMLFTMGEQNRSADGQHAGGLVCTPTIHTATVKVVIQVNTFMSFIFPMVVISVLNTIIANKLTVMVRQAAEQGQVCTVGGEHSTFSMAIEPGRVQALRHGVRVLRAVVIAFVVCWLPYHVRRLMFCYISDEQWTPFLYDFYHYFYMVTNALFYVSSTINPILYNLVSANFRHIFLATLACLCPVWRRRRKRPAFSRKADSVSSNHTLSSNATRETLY

Structure (SMILES)	D10 (radiation dose at 10% fractional survival) (H1299 cells [1]) [Gy]	α (linear quadratic model best fit value) (H1299 cells [1])	β (linear quadratic model best fit value) (H1299 cells [1])	IC50 (H1299 cells [2]) [nM]	IC50 (H1299 cells [3]) [nM]	portion of cells in the G2/M phase (H1299 cells [4]) [%]	complete blood count: WBC, RBC, PLT, PCT levels [5]	biological stability [6]	avidity to NTSR1 (NTSR1)
COc1cc2cc(c1Cl)N(C)C(=O)C[C@H](OC(=O)[C@H](C)N(C)C(=O)CCS)[C@]1(C)O[C@H]1[C@H](C)[C@@H]1C[C@@](O)(NC(=O)O1)[C@H](OC)/C=C/C=C(\C)C2 [DM1, Mertansine, reference compound]	4.89	0.0729	0.0033	17.4	19.8	85.3	in the normal range	–	–
CC(C)C[C@H](NC(=O)C(NC(=O)[C@H](Cc1ccc(O)cc1)NC(=O)C1CCCN1C(=O)[C@H](CCCNC(=N)N)NC(=O)C(NC(=O)C1CCCN1C(=O)C(NC(=O)C(N)CS)C1CCNCC1)C1CCN(C(=N)N)CC1)C(C)(C)C)C(=O)O (stereo partly drawn) [NTSmut] (H-[ξC][ξGly(piperidin-4-yl)][ξP][ξGly(4-Pip(1-amidino))]R[ξP]Y[ξTle]L-OH)	–	–	–	–	–	–	–	much greater biological stability	comparable, nanomolar avidity
